From patent US12478617B2, “Lipidated peptide inhibitors of interleukin-23 receptor” (JANSSEN BIOTECH, INC., priority 2021, dated 2025) come the findings set out here.

For data set [1] the following is noted: from Ac-Pen-Asn-Thr-7MeTrp-Lys(Ac)-Pen-AEF-2Nal-THP-Lys(Ac)-Asn-3Pya-Sar-PEG2-PEG2-eLys(C16OH)-OH; disulfide bond; 20-membered ring; I2/AcOH; ACN/H2O; […].
For the next data set, the target named is T1, IL-23R (Homo sapiens, UniProt Q5VWK5).
T1 construct: HEK293 cells containing IL-23R, IL-12RP31 and a firefly luciferase reporter gene driven by a STAT-inducible promoter (Promega); host or cells: HEK293
T1 sequence (Q5VWK5 24-629): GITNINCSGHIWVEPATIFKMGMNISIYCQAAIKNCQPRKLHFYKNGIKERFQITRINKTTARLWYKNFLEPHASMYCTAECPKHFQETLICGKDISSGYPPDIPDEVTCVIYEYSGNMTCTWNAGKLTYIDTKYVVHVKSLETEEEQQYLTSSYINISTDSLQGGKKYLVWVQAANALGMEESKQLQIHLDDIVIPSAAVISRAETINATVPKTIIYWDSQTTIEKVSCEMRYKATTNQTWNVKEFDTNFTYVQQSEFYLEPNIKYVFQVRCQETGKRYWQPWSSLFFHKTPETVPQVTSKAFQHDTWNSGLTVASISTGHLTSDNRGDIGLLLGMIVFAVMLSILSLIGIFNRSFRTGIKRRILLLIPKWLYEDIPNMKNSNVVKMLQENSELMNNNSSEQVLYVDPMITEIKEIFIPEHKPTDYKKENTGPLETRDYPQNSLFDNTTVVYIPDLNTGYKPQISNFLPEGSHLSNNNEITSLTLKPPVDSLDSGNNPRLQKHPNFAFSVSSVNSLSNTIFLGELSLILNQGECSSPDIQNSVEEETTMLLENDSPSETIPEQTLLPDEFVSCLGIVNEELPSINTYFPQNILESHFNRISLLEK
In words: IL23R Reporter Assay. It is filed as cell-based. Summed up:
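Reporter cells read out IL-23-driven STAT3 activation; compounds were serially diluted in DMSO. After 5 h at 37 °C, 5% CO2, cells were brought to 20 °C and luminescence was measured with BioGlo reagent.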
(In general: A reporter such as luciferase makes a cellular process visible.)

Data set [2] addresses T2, peripheral blood mononuclear cells (PBMCs) (Homo sapiens, UniProt Q5VWK5).
T2 sequence (Q5VWK5 24-629): T1 sequence (Q5VWK5 24-629)
Kind of data set: PBMC pSTAT3 assay. It is filed as cell-based. Particulars: PBMCs from healthy donors, anti-CD3/IL-1β cultured; peptide 30 min, then IL-23 5 ng/mL for 30 min; phosphorylated STAT3 (Meso Scale Discovery). From the text: IL-23 binding to IL-23 receptors results in the activation of the Signal Transducer and Activator of Transcription 3 (STAT3) by phosphorylation and downstream signaling events. Accordingly. the ability of the inhibitors described herein to block IL-23 action can be assessed by monitoring the status of STAT3 activation in response to IL-23. This may be accomplished in reporter cell assays or in intact cells such as peripheral blood mononuclear cells (PBMCs).

Positions of bridges follow the written chain, without caps; N, C: chain ends. Non-standard residues stand in square brackets, D forms with d. Residues, ends and D or L forms follow the SMILES beside them. *: point of attachment. X1 = O=C(O)CCCCCCCCCCCCCCC(=O)N[C@@H](CCCCN*)C(=O)O; Trp(7-Me) = Cc1cccc2c(C[C@H](N)C(=O)O)c[nH]c12; 2Nal = N[C@@H](Cc1ccc2ccccc2c1)C(=O)O; AEF = NCCOc1ccc(C[C@H](N)C(=O)O)cc1; 3Pal = N[C@@H](Cc1cccnc1)C(=O)O; Pen = CC(C)(S)[C@H](N)C(=O)O; Thp = NC1(C(=O)O)CCOCC1; AEEA = NCCOCCOCC(=O)O; Sar = CNCC(=O)O

In the case of `CC(=O)NCCCC[C@@H]1NC(=O)[C@H](Cc2c[nH]c3c(C)cccc23)NC(=O)[C@H]([C@@H](C)O)NC(=O)[C@H](CC(N)=O)NC(=O)[C@@H](NC(C)=O)C(C)(C)SSC(C)(C)[C@@H](C(=O)N[C@@H](Cc2ccc(OCCN)cc2)C(=O)N[C@@H](Cc2ccc3ccccc3c2)C(=O)NC2(C(=O)N[C@@H](CCCCNC(C)=O)C(=O)N[C@@H](CC(N)=O)C(=O)N[C@@H](Cc3cccnc3)C(=O)N(C)CC(=O)NCCOCCOCC(=O)NCCOCCOCC(=O)NCCCC[C@H](NC(=O)CCCCCCCCCCCCCCC(=O)O)C(=O)O)CCOCC2)NC1=O` [Example 8, MeCO-Pen*-N-T-7MeW-K(Ac)-Pen*-AEF-2Nal-THP—K(Ac)-N— 3Pva-Sar-PEG2-PEG2-eK(C160H)-COOH (*Pen-Pen form disulfide bond)] (Ac-[Pen]NT[Trp(7-Me)]K(Ac)[Pen][AEF][2Nal][Thp]K(Ac)N[3Pal][Sar][AEEA][AEEA]-X1; disulfide 1-6), in data set [1], the ring closure, yield after HPLC was 7%. The IC50 (usually the concentration needed to halve the response being measured) was found to be 0.089 nM against IL-23R and 0.21 nM in data set [2].
